For one data set, the system named is Progesterone Receptors. Nature of the data set: Inhibition of 3H-Progesterone Binding to the Bovine Uteral Progesterone Receptors. As to conditions: competitor 10^−6M; 3H-progesterone 0.15 nM.
Data set [1] relates to metrazol induced convulsions. Put plainly: Antimetrazol activity in mice. The class given is in vivo. As to conditions: Mus musculus; steroid i.p., convulsant s.c., 50% hydroxypropyl-β-cyclodextrin. The method in brief:
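Mice dosed with test compounds at various doses 10 minutes before metrazol (85 mg/kg) injection. Each animal observed for 30 minutes, recording time to onset of myoclonus (forelimb clonic activity).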

Data set [2] is described as follows: Rotorod test (general CNS depression potential). On the set-up: species or system mice. As to conditions: mouse, in vivo, ip, 50% hydroxypropyl-β-cyclodextrin. The source says: (§1) The anticonvulsant tests are similar to that described above.
For data set [3], the system named is maximal electroshock tonic seizure. Put plainly: Maximal electroshock test. As to conditions: Mus musculus, ip, 50% hydroxypropyl-β-cyclodextrin. The class given is in vivo, mice.
Description: as §1
In general terms: Protection in the maximal electroshock model is a classic sign of anticonvulsant action.

Data set [4] relates to BIC (bicuclline) convulsions. Nature of the data set: Chemical convulsant test, BIC. The class given is in vivo, mice. As to conditions: Mus musculus; steroid i.p., convulsant s.c., 50% hydroxypropyl-β-cyclodextrin.
Description: as §1

Data set [5] relates to TBPS. Put plainly: Chemical convulsant test, column TBPS. The class given is in vivo, mice. As to conditions: Mus musculus, read-out: ED50 TBPS.
Description: as §1

Data set [6] has as its system STR (strychnine) convulsions. Put plainly: Chemical convulsant test, strychnine. The data set is classed as in vivo, mice. Conditions: Mus musculus, read-out: ED50 STR.
Description: as §1

The test system of another data set is hormonal activity. Nature of the data set: Hormonal activity in vivo. More on the design: species or system animals. The source says:
Thus, they wil not have the hormonal side-effects which would be associated with binding to such steroid receptors.

Data set [7] deals with T1, Mineralocorticoid Receptors (Rattus norvegicus, UniProt P22199).
T1 construct: To isolate the mineralocorticoid receptor, brain cytosol fractions were prepared; from tissue; host or cells: brain (hippocampal) cytosol of adrenalectomized rats
T1 sequence (P22199 1-981): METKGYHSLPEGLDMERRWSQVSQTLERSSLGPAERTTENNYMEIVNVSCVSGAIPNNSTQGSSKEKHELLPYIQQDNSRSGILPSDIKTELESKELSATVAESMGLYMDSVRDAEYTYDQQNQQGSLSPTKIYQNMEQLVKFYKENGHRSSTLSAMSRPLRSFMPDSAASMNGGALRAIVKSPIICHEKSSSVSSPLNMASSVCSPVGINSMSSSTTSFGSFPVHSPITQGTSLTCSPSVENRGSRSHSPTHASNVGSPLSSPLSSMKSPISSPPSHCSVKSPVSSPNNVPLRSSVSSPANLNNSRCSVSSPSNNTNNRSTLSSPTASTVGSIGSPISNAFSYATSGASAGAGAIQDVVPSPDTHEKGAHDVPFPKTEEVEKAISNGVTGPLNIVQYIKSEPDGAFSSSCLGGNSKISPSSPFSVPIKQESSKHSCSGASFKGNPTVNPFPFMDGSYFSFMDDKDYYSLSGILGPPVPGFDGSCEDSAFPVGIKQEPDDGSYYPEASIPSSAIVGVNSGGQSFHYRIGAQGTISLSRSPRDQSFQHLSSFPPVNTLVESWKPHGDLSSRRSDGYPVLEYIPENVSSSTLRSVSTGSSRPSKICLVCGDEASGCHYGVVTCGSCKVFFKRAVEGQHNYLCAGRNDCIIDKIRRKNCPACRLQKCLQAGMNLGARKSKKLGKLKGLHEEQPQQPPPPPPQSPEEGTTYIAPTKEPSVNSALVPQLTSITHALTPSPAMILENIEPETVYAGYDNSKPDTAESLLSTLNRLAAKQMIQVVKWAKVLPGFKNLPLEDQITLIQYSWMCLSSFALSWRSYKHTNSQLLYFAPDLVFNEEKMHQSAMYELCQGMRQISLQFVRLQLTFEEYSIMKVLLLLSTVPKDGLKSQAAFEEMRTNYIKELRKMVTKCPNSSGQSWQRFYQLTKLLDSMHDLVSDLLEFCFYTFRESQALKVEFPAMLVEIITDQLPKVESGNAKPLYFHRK
Put plainly: Inhibition of 3H-Aldosterone Binding to Hippocampal Mineralocorticoid Receptors. As to conditions: competitor 10^−6M; 3 nM 3H-aldosterone, RU28362 0.5 μM. Here is the method:
(§2) Various hormonal activities of representative neuroactive steroids were further studied through testing their potential estrogenic, mineralocorticoid and glucocorticoid activities. These activities were analyzed by monitoring the ability of the compounds to inhibit binding of the steroid hormones to their respective hormone receptors.
In Table 4, rats were adrenalectornized 3 days prior to sacrifice.

Another data set has as its target T2, Glucocorticoid Receptors (Rattus norvegicus, UniProt P06536).
T2 construct: from tissue; host or cells: rat brain cytosol
T2 sequence (P06536 1-795): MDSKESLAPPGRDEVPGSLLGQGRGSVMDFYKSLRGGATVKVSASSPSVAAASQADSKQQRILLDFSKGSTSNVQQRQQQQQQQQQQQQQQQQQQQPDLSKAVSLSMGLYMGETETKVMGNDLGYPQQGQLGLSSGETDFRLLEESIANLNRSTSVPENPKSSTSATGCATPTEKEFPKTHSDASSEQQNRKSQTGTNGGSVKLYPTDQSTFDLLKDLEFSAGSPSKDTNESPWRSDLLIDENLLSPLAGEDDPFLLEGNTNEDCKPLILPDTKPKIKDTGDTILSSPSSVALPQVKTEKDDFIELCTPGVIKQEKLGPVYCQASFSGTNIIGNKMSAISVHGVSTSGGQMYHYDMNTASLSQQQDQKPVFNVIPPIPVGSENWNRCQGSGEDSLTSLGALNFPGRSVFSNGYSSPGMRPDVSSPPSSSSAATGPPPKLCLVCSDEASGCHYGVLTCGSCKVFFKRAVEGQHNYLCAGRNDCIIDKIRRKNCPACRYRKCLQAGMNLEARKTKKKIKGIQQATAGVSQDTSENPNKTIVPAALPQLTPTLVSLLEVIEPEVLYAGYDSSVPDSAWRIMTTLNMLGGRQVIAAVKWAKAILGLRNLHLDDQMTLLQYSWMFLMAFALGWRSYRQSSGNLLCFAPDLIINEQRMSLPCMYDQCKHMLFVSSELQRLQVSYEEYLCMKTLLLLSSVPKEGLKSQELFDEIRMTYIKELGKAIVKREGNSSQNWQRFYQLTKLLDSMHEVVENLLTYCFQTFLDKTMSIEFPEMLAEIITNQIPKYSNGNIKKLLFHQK
Put plainly: Inhibition of 3H-Dexamethasone Binding to Glucocorticoid Receptors. Conditions: competitor 10^−6M; 3 nM 3H-dexamethasone. Here is the method: as §2
For Table 4, brain cytosol fractions were prepared as for Table 3, and the compounds were incubated with 3 nM of ^3H-dexamethasone (the specific ligand for the glucocorticoid receptor).

The target of another data set is T3, Estrogen Receptors (Bos taurus, UniProt P49884).
T3 construct: from tissue; host or cells: bovine uterus cytosol
T3 sequence (P49884 1-596): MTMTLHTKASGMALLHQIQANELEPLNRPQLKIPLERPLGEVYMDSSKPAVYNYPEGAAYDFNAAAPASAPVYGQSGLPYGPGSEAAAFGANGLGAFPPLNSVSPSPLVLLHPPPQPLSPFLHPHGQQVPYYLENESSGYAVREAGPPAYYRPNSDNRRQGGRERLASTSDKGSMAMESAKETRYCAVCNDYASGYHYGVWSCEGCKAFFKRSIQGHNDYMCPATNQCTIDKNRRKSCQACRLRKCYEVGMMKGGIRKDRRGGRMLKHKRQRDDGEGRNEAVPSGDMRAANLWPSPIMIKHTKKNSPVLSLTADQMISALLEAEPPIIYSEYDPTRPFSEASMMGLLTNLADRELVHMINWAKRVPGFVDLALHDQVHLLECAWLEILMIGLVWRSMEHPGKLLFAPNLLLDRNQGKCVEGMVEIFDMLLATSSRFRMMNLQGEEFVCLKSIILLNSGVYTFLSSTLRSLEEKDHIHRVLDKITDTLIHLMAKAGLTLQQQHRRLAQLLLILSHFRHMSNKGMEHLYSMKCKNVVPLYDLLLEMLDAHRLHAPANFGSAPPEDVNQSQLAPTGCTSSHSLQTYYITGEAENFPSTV
Nature of the data set: Inhibition of 3H-Estradiol Binding to Bovine Uteral Estrogen Receptors. Conditions: competitor 10^−6M; 3H-estradiol 0.15 nM. Here is the method: as §2

Data set [8] concerns metrazol induced convulsions. As to conditions: cited from earlier work.
For data set [9], the system named is maximal electroshock tonic seizure. As to conditions: cited from earlier work.
The test system of data set [10] is BIC (bicuclline) convulsions. Conditions: cited from earlier work.
Data set [11] deals with TBPS. As to conditions: data from Swinyard & Woodhead 1982; cited from earlier work.
Data set [12] has as its system STR (strychnine) convulsions. Conditions: cited from earlier work.
The conditions of data set [13]: data from Swinyard & Woodhead 1982; cited from earlier work.
[14] abbreviates: data from Swinyard & Woodhead 1982.
Setting [15] is: convulsant i.v., data from Worms et al. 1982.

As usually defined, the ED50 is the midpoint of the dose-response relation.

Where two headings read alike, the source gives them in different places. Bounds are passed on as bounds.

For the compound `CC(=O)[C@H]1CC[C@H]2[C@@H]3CC[C@H]4C[C@](C)(O)CC[C@]4(C)[C@H]3CC[C@]12C` [5α-pregnan-3α-ol-3β-methyl-20-one, 3α-hydroxy-3β-methyl-5α-pregnan-20-one], the “% of Inhibition” value in the data set on Progesterone Receptors is 4%. The ED50 is 4.3 mg/kg in data set [1]; 29.7 mg/kg in [3]; 4.6 mg/kg in data set [4]; 11.7 mg/kg in the data set with TBPS [5]; > 40 mg/kg in [6]. The same compound came in with an ED50 at 10 min in [2] of 33.4 mg/kg. Also, in the data set on hormonal activity, the “hormonal activity when given to animals in vivo” value was “not to have any hormonal activity”.
On to `CC(C)(O)[C@H]1CC[C@H]2[C@@H]3CC[C@H]4C[C@H](O)CC[C@]4(C)[C@H]3CC[C@]12C` [5α-pregnan-20-dimethyl-3α,20-diol, 5α-pregnan-20-dimethyl-3α,20-diol], for which the “% of Inhibition” value with Progesterone Receptors came out at 0%; in data set [7], 0%; at Glucocorticoid Receptors, 2.6%; at Estrogen Receptors it was 0%.
On to `C[C@]12CC[C@@H](O)C[C@H]1CC[C@@H]1[C@@H]2CC[C@]2(C)[C@@H](C(=O)CO)CC[C@@H]12` [5β-pregnan-3α,21-diol-20-one, 5β-pregnan-3α,21-diol-20-one], for which the “% of Inhibition” value with Progesterone Receptors was 6%; in data set [7] it was 13.8%; on Glucocorticoid Receptors it was 8.2%; on Estrogen Receptors, 0%.
`O=C1CN=C(c2ccccc2Cl)c2cc([N+](=O)[O-])ccc2N1` [Clonazepam]: the “ED50 PTZ” value in data set [8] (setting [14]) is 0.025 mg/kg. Besides, the “ED50 MES” value in data set [9] (setting [14]) was 111 mg/kg. Besides, the “ED50 BIC” value in data set [10] (setting [14]) is 0.0046 mg/kg. Moreover, in the data set on TBPS [11], the “ED50 TBPS” value was 205 mg/kg. In data set [12] (setting [14]), the “ED50 STR” value is >300 mg/kg. Also, the “ED50 RR” value in data set [13] was 0.184 mg/kg.
`NC(=O)CCC/N=C(\c1ccc(Cl)cc1)c1cc(F)ccc1O` [Progabide]: in data set [8] (setting [15]), the “ED50 PTZ” value was 30 mg/kg. For the same compound, the “ED50 MES” value in data set [9] (data from Worms et al. 1982) is 75 mg/kg. The “ED50 BIC” value in [10] (setting [15]) was 30 mg/kg. Further, the “ED50 STR” value in data set [12] (setting [15]) is 75 mg/kg.
